For 19 molecules, Eye toxicity and inhibition in vivo results are on record in ChEMBL document CHEMBL1135986, “Corrigendum to Synthesis and anti-angiogenic activity of 6-(1,2,4-thiadiazol-5-yl)-3-amino pyridazine derivatives [Bioorg. Med. Chem. Lett. 12 (2002) 589]” (Bioorg Med Chem Lett, 2002).

The structures appear in SMILES notation.

By inhibition in vivo is commonly meant the relative decrease from the control value, in per cent. A higher inhibition in vivo goes with a response far below the control.

Series [1] can be described thus: Ocular toxicity was assessed after oral dosing at 40 mg/Kg b.i.d. for 4 days in male Wistar rats; Yes. The settings on record: rat, in vivo, 96 h.
The test system of series [2] is Mus musculus. Kind of series: In vivo percentage inhibition of 3LL Lewis Lung tumor mets formation were measured after oral dosing b.i.d. for 28 days to B6D2F1 mice at a dose of 15 mg/kg b.i.d. In kind it is functional. The settings on record: 672 h.
Series [3] in a line: Ocular toxicity was assessed after oral dosing at 40 mg/Kg b.i.d. for 4 days in male Wistar rats; No. The settings on record: rat, in vivo, 96 h.
Series [4] is described as follows: Ocular toxicity was assessed after oral dosing at 40 mg/Kg b.i.d. for 4 days in male Wistar rats; Very weak. The settings on record: rat, in vivo, 96 h.

As to `Cc1nsc(-c2ccc(N3CCN(c4cc(Cl)cc(Cl)c4)CC3)nn2)n1`, the Eye toxicity entry in series [1] is “Yes”.

`FC(F)(F)c1cccc(N2CCN(C3CCN(c4ccc(-c5ncns5)nn4)CC3)CC2)c1` returned an inhibition in vivo at 15 mg/kg in series [2] of 54%. In series [3], the Eye toxicity entry is given as “No toxicity”.

In the case of `Nc1nsc(-c2ccc(N3CCN(c4cccc(C(F)(F)F)c4)CC3)nn2)n1`, the Eye toxicity entry in series [3] was “No toxicity”.

On to `CN(C)c1nsc(-c2ccc(N3CCN(c4cc(C(F)(F)F)cc(C(F)(F)F)c4)CC3)nn2)n1`, for which, in series [2], the inhibition in vivo at 15 mg/kg was 13%. Also, the Eye toxicity result in series [3] was “No toxicity”.

For `CCc1nsc(-c2ccc(N3CCN(c4cccc(C(F)(F)F)c4)CC3)nn2)n1`, in series [3], the Eye toxicity entry is on record as “No toxicity”.

Turning to `Cc1nsc(-c2ccc(N3CCN(c4ccccc4C(F)(F)F)CC3)nn2)n1`, the Eye toxicity entry in series [1] is “Yes”.

Take `Cc1nsc(-c2ccc(N3CCN(c4cccc(C(F)(F)F)c4)CC3)nc2)n1`: the Eye toxicity result in series [3] is reported as “No toxicity”.

Regarding `Cc1nsc(-c2ccc(N3CCN(c4cccc(Cl)c4)CC3)nn2)n1`, in series [1], the Eye toxicity entry is recorded as “Yes”.

`Cc1nsc(-c2ccc(N3CCN(c4cccc([N+](=O)[O-])c4)CC3)nn2)n1`: the Eye toxicity result in series [1] was “Yes”.

Consider `CNc1nsc(-c2ccc(N3CCN(c4cccc(C(F)(F)F)c4)CC3)nn2)n1`, for which the Eye toxicity result in series [3] is on record as “No toxicity”.

As for `Cc1nsc(-c2nccc(N3CCN(c4cccc(C(F)(F)F)c4)CC3)n2)n1`, in series [3], the Eye toxicity result was “No toxicity”.

Consider `FC(F)(F)c1cccc(N2CCN(c3ccc(-c4ncns4)nn3)CC2)c1`, for which, in series [3], the Eye toxicity result is “No toxicity”.

In turn, `CN(C)c1nsc(-c2ccc(N3CCN(c4cccc(C(F)(F)F)c4)CC3)nn2)n1` returned an inhibition in vivo at 15 mg/kg in series [2] of 39%. For the same molecule, in series [3], the Eye toxicity entry is reported as “No toxicity”.

With `Cc1nsc(-c2ccc(N3CCN(c4cccc(C(F)(F)F)c4)CC3)nn2)n1`, the Eye toxicity result in series [1] is on record as “Toxicity”.

In the case of `Cc1nsc(-c2ccc(N3CCN(c4cc(C(F)(F)F)cc(C(F)(F)F)c4)CC3)nn2)n1`, in series [1], the Eye toxicity entry is recorded as “Yes”.

`FC(F)(F)c1cccc(NC2CCN(c3ccc(-c4ncns4)nn3)CC2)c1` gave an inhibition in vivo at 15 mg/kg in series [2] of 42%. In addition, in series [3], the Eye toxicity result is on record as “No toxicity”.

`CN(C)c1nsc(-c2ccc(N3CCC(N4CCN(c5cccc(C(F)(F)F)c5)CC4)CC3)nn2)n1` displayed an inhibition in vivo at 15 mg/kg in series [2] of 25%. The Eye toxicity entry in series [4] is “Very weak toxicity”.

Turning to `FC(F)(F)c1cc(N2CCN(c3ccc(-c4ncns4)nn3)CC2)cc(C(F)(F)F)c1`, the inhibition in vivo at 15 mg/kg in series [2] turned out to be 24%. Moreover, the Eye toxicity entry in series [3] was “No toxicity”.

As to `Cc1nsc(-c2ccc(N3CCN(c4cccc(C(F)(F)F)c4)CC3)cc2)n1`, the Eye toxicity result in series [3] is given as “No toxicity”.
